# Measured values reported in ChEMBL document CHEMBL1201862, “PubChem BioAssay data set” (2004).
# The source made the active and inactive calls.
# How the values were obtained:
# HeLa = assay: viability loss in HeLa cells – cell-based, 24 h, cherry-picked samples, cytotoxicity control, dose response (AID 504726); format: functional; details: Homo sapiens;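 also: potency for cytotoxicity as loss of luminescence signal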
# ORF 73 = ORF 73 (Human herpesvirus 8, UniProt O40947); assay: KSHV LANA DNA-binding disruption – biochemical, fluorescence polarization, cherry-picked samples, dose response (AID 504725); parameters: species or system Human gammaherpesvirus 8;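 also: fluorescence polarization of a labeled DNA duplex reporting LANA DNA binding; potency is for inhibitors that block LANA binding to the DNA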
# [1] = target: Dual specificity tyrosine-phosphorylation-regulated kinase 1A (Rattus norvegicus, UniProt Q63470); format: biochemical, Homo sapiens
# [2] = viability loss in HeLa cells – cytotoxicity control for MgcRacGAP inhibitor project, dose response (AID 624300); format: functional
# [3] = target: T1, Rac GTPase-activating protein 1 (Homo sapiens, UniProt Q9H0H5); assay: blockers of MgcRacGAP-driven Rac1 GTP hydrolysis – biochemical, ADP Hunter fluorescence, primary and confirmatory, confirmation (AID 624330); format: functional
# T1 sequence (Q9H0H5 whole entry): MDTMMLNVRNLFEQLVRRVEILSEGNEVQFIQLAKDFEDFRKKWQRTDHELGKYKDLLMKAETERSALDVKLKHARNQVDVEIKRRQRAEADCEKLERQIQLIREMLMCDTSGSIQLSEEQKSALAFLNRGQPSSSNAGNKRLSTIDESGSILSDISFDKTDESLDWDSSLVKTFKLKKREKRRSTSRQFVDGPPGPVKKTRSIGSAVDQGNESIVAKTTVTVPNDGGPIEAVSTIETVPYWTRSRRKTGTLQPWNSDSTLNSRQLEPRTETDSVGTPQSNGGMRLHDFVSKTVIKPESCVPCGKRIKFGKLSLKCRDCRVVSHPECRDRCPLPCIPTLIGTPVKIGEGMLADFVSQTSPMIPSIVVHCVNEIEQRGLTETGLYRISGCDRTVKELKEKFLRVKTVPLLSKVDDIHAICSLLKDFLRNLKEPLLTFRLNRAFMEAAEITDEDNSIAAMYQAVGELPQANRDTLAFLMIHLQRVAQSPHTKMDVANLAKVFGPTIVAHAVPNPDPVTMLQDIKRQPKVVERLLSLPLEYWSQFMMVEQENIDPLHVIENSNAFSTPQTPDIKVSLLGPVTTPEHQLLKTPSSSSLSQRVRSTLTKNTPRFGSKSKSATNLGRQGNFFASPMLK
# [4] = target: SWI/SNF-related matrix-associated actin-dependent regulator of chromatin subfamily A member 2 (Homo sapiens, UniProt P51531); assay: Luminescence-based cell-based high throughput dose response assay to identify activators of the function of SWI/SNF related, matrix associated, actin dependent regulator of chromatin, subfamily a, member 2 (SMARCA2, BRM).; format: functional
# [5] = Counterscreen for activators of the function of SWI/SNF related, matrix associated, actin dependent regulator of chromatin, subfamily a, member 2 (SMARCA2, BRM): Luminescence-based cell-based high throughput dose response assay to identify non-selective compounds using the VP16 reporter assay.; format: functional
# [6] = target: T2, Histone-lysine N-methyltransferase NSD2 (Homo sapiens, UniProt O96028); format: biochemical
# T2 sequence (O96028 whole entry): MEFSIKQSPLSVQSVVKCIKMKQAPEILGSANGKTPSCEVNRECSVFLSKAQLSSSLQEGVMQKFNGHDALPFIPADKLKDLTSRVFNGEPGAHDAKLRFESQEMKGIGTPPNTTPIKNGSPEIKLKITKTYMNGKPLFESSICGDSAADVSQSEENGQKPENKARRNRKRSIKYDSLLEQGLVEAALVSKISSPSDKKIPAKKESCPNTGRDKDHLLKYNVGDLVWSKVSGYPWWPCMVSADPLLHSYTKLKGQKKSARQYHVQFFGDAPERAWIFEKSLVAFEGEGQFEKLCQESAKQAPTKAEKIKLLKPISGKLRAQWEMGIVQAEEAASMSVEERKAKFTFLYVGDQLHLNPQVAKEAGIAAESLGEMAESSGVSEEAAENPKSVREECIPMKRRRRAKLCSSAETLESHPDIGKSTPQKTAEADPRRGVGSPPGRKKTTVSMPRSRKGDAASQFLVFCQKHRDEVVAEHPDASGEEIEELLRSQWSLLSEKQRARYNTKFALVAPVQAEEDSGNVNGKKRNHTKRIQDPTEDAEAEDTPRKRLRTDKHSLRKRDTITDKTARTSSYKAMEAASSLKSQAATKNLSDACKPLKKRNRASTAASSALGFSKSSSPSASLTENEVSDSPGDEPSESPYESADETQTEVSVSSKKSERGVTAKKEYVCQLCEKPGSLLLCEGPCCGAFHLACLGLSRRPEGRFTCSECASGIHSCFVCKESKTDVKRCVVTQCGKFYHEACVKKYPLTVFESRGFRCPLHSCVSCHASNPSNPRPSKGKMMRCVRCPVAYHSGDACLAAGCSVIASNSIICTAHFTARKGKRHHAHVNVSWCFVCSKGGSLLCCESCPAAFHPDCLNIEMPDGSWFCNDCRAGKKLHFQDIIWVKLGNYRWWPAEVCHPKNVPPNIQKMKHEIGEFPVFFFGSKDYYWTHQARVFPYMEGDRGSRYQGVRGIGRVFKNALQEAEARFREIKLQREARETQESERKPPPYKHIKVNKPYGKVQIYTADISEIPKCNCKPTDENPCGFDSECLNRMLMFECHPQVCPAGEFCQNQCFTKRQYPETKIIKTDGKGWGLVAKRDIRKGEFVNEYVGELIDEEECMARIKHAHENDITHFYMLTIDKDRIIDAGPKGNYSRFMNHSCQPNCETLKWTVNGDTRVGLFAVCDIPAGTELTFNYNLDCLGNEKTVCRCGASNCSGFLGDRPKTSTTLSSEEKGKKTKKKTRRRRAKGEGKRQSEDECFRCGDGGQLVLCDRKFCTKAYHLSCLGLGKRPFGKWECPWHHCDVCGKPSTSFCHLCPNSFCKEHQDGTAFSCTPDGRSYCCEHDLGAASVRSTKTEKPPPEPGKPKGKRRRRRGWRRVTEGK
# [7] = target: Tyrosyl-DNA phosphodiesterase 2 (Homo sapiens, UniProt O95551); assay: potency against TDP2 phosphodiesterase activity – biochemical, epi absorbance, IC50, dose response (AID 743297)
# [8] = viability of uninfected HEp-2 cells – cell-based, HTS, cytotoxicity control for RSV inhibitor project, dose response (AID 2410); format: functional; details: human respiratory syncytial virus
# [9] = test system: Streptococcus sp. 'group A'; assay: Streptococcus pyogenes SK(-)GAS viability under kanamycin – luminescence, BacTiterGlo, confirmation, counter-screen for streptokinase expression inhibitor project, dose response (AID 1900); format: functional, organism-based
# Streptokinase A = target: T3, Streptokinase A (Streptococcus pyogenes serotype M1, UniProt P10520); assay: viability-normalized secreted streptokinase activity reduction – plasminogen activation absorbance, OD405, dose response (AID 1914); format: functional, Streptococcus pyogenes M1 GAS;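 also: secreted streptokinase activity via plasminogen activation per viability signal from cell pellet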
# T3 sequence (P10520 whole entry): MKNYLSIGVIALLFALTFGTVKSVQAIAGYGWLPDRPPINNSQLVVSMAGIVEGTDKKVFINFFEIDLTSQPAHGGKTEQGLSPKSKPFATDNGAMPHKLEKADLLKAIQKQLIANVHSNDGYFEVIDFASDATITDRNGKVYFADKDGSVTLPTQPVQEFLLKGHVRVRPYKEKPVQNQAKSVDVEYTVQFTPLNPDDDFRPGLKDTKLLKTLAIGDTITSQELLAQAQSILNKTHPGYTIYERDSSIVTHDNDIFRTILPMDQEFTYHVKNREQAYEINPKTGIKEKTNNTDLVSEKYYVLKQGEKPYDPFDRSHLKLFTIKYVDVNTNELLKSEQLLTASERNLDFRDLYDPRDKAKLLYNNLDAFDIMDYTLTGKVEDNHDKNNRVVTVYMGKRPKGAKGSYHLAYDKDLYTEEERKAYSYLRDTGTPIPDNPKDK
# [10] = target: T4, Calpain-2 catalytic subunit (Sus scrofa, UniProt P43367); assay: m-calpain protease blockers, concentration series – biochemical, fluorogenic peptide substrate, dose response (AID 1420); format: functional
# T4 sequence (P43367 whole entry): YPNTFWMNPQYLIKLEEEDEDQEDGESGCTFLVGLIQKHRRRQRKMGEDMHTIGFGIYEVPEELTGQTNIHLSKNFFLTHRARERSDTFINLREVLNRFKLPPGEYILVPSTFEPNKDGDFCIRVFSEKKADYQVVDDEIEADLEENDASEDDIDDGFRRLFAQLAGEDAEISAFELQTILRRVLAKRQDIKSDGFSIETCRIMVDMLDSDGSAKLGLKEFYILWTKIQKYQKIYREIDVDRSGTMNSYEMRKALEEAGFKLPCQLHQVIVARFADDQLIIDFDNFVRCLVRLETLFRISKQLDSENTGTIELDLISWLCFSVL
# Streptococcus = assay: GAS UMAA2166 growth inhibition – luminescence, BacTiterGlo, counter-screen for streptokinase expression inhibitor project, dose response (AID 1915); format: functional, organism-based;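 also: potency for reduction of bacterial viability or growth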
# Major prion protein = Major prion protein (Homo sapiens, UniProt P04156); format: functional, cell-based
# [11] = inhibitors acting on PAX2 in cells – cell-based, plate reader, dry powder samples, selectivity assay for PAX8 inhibitor project, dose response (AID 743048); format: functional;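 also: HEK293 cells carrying a WT1 promoter luciferase reporter driven by expressed Pax2; potency is for inhibition of Pax2 driven reporter signal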
# [12] = PAX5 cellular inhibition readout – cell-based, plate reader, dry powder samples, selectivity assay for PAX8 inhibitor project, dose response (AID 743047); format: functional;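 also: HEK293 cells carrying a Pax5 driven CD19 promoter luciferase reporter; potency of inhibitors that lower reporter luminescence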
# [13] = OV-90 cell viability loss – plate reader, dry powder, SA8, PAX8 inhibitor project, dose response (AID 743149); format: functional, cell-based
# [14] = target: Protein disulfide-isomerase (Homo sapiens, UniProt P07237); assay: inhibition of PDI-mediated insulin reduction – biochemical, turbidity, dry powder samples, set 2, confirmation (AID 652146)
smiles,measurement,setting,value
CCN(CC)CCCNc1ccc2ncn3c4ccc(O)cc4c(=O)c1c23,AC50,HeLa,> 350 µM (inactive)
same,AC50,ORF 73,2.05 µM (active)
same,AC50,[1],2.77 µM (active)
same,CC50,[2],89.3 µM (active)
same,IC50,[3],56.4 µM (active)
same,EC50,[4],20.5 µM (inactive)
same,EC50,[5],> 91.2 µM (inactive)
same,AC50,[6],12.7 µM (active)
same,IC50,[7],> 128 µM (inactive)
Cc1nc(-c2ccc(S(=O)(=O)Nc3ccc(Br)cc3Cl)s2)cs1,CC50,[8],16.6 µM (active)
same,EC50,[9],3.04 µM (active)
same,EC50,Streptokinase A,3.98 µM (active)
same,IC50,[10],12.2 µM (active)
same,EC50,Streptococcus,11.9 µM (active)
same,IC50,Major prion protein,12.5 µM (inactive)
same,IC50,cells,> 138 µM (inactive)
COc1cccc(C#Cc2ccc([C@@H]3[C@@H](C#N)N(C(=O)C4CCCC4)[C@@H]3CO)cc2)c1,AC50,[11],31.6 µM (active)
same,AC50,[12],30.7 µM (active)
same,AC50,[13],> 70 µM (inactive)
C=CCOc1ccc(CN2CCC(CCOc3ccccc3)(C(=O)O)CC2)cc1Cl,AC50,[14],20 µM (active)
